Data taken from PMC2409900 (British Journal of Cancer, 2004).
Where “and” joins values, the source holds several entries; their conditions need not be identical. Equal entries are not always repeated.

Experiments:
[1] = In vivo uptake into RBCs after single p.o. or i.v. dose; conditions: female, Wistar, 10 mg kg^−1, rat
Source text: Three rats were used for each time point.
(§1) The coefficients of variation (interday and intraday) were <10%.

[2] = Stability of 667 COUMATE in vehicle; format: physicochemical; conditions: HPLC
rat RBCs = experiment: Ex vivo uptake of 667 COUMATE / 667 COUMARIN by RBCs in whole blood; format: in vitro ADME
Procedure: (§2) Whole blood was removed from female Wistar rats, pooled, centrifuged (2800 g, 4°C, 15 min) and separated into RBCs and plasma. […] 667 COUMATE was also incubated with plasma only. Duplicate samples were maintained at 37°C for 0.5, 1, 3 and 24 h on rollers. Whole blood was acidified by addition of 1 M (pH 3) citrate buffer (9 : 1, v v^−1). […] Plasma was separated from other blood constituents by centrifugation (2800 g, 4°C, 15 min) and the radioactivity was counted.
as §1

[3] = test system: E1S-stimulated nitrosomethylurea-induced mammary tumours; conditions: cited from earlier work
[4] = Ex vivo stability in plasma and whole blood (667 COUMATE/667 COUMARIN ratio); format: in vitro ADME, rat
Procedure: as §2, with “Duplicate samples were maintained at 37°C for 0.5, 1, 3 and 24 h on rollers.” left out
as §1

[5] = Pharmacokinetic study: plasma levels after single i.v. or p.o. dose; conditions: for half-life: t1/2β
Procedure: Female Wistar (155–165 g) rats were purchased from Charles River UK Ltd (Margate, Kent, UK) and housed in a dedicated animal facility. Rats received RM1 rodent maintenance diet (SDS, Kent, UK), water ad libitum and were maintained in positive pressure isolators under a 12 h light–dark cycle. These experiments were approved by the Imperial College Ethical Review Committee and met the standards required by the UKCCCR guidelines ([Workman et al, 1998]). […] Three rats were used for each time point. Rats were subjected to terminal anaesthesia (halothane) and blood was removed by cardiac puncture at 2.5, 5, 15, 30 and 45 min and 1, 3, 8, 16 and 24 h after i.v. administration. […] Plasma and RBCs were prepared from whole blood by centrifugation (2800 g, 4°C, 15 min). […] 7-Hydroxycoumarin (3 μg ml^−1) was used as an internal standard. The organic phase was decanted to a fresh tube and evaporated to dryness under a stream of air at room temperature. […] Briefly, RBCs were mixed with blank plasma (1 : 1, v v^−1) and mixed by inversion in order to reconstitute ‘whole blood’. 7-Hydroxycoumarin (3 μg ml^−1) was added to the whole blood (500 μl). […] Samples were thawed, vortexed for a further 5 min, centrifuged (15 000 g, 15 min) and the supernatant was removed and filtered ([…], acrodisc CR PTFE). The diethyl ether was removed under a stream of air. […] The residues were stored at −20°C in preparation for HPLC analysis.
Pharmacokinetic parameters were calculated using WinNonlin software (Pharsight Corporation, Mountview, CA, USA). The area under the curve (AUC) was calculated using the linear trapezoidal method with extrapolation of the terminal phase to infinity. Other parameters calculated were as follows: elimination rate constant (β); total body clearance (Cl)=dose/AUC; volume of distribution (Vd)=Cl/β; elimination half-life (t1/2β)=0.693/β; bioavailability (%F)=(AUCoral/AUCi.v.) × 100.

rat liver STS = conditions: cited from earlier work
[6] = design: method as in Ireson et al, 2003; conditions: by 4 h; ref Ireson et al, 2003; cited from earlier work
STS = test system: STS; design: method as in Ireson et al, 2003; conditions: ref Ireson et al, 2003; cited from earlier work
[7] = female, Wistar, rat, in vivo, iv, 10 mg/kg
[8] = female, Wistar, rat, in vivo, po, 10 mg/kg

NS(=O)(=O)Oc1ccc2c3c(c(=O)oc2c1)CCCCC3 [667 COUMATE, 6-oxo-8,9,10,11-tetrahydro-7H-cyclohepta-[c] [1] benzopyran-3-O-sulphamate]
concentration at 30 min ([1]; iv, 30 min after i.v. administration): 19000 ng/mL | concentration at 30 min ([1]; po, 30 min after p.o. administration): 12000 ng/mL | stability in vehicle ([2]; THF : PEG-400 : water 1:6:3, on ice for up to 6 h): stable | percentage of agent retained by the RBCs (rat RBCs; 24 h after addition to whole rat blood): 48% | percentage of agent taken up by RBCs (two independent analytical methods) (rat RBCs; added to rat whole blood ex vivo): more than 70% | uptake into RBCs after preincubation with acetazolamide (rat RBCs; whole rat blood preincubated 30 min with acetazolamide (100 μM)): 50% | percentage of agent associated with the RBC fraction (rat RBCs; whole rat blood, 30 min incubation, 37°C, 10 μg ml^−1, HPLC): more than 80% | inhibition of STS activity in mammary tumours ([3]; nitrosomethylurea-induced mammary tumours in rats, ref Purohit et al, 2000): almost completely inhibit STS activity | growth of E1S-stimulated tumours ([3]; nitrosomethylurea-induced rat mammary model, ref Purohit et al, 2000, 2001): causes a reduction in the growth | parent compound remaining in plasma ([4]; plasma, 3 h incubation): below the limit of detection | parent compound remaining in whole blood ([4]; whole blood, after 48 h incubation): could still be detected | Cl ([5]; 10 mg kg^−1 bolus i.v., rat, Cl=dose/AUC): 53.5 ± 2.6 mL/h | t1/2β ([5]; 10 mg kg^−1 p.o., rat plasma): 1.97 ± 0.3 h | Cl ([5]; 10 mg kg^−1 p.o., rat, Cl=dose/AUC): 54 mL/h and 54.2 ± 2.4 mL/h | Vd ([5]; 10 mg kg^−1 p.o., rat, Vd=Cl/β): 0.1532 ± 0.0187 L/kg | concentration at 8 h ([5]; female, Wistar, rat, in vivo, 10 mg kg^−1): > 100 ng/mL | bioavailability ([5]; female, Wistar, rat, in vivo, 10 mg kg^−1, %F (bioavailability), 10 mg kg^−1 p.o. vs i.v., rat, (AUCoral/AUCi.v.) × 100): 95% | AUC [5, 7]: 35800 ± 1300 ng·h/mL | Cmax [5, 7]: 22800 ± 600 ng/mL | Vd [5, 7]: 0.0939 ± 0.0029 L/kg | k el [5, 7]: 0.000167 s⁻¹ | clearance ([5]; female, Wistar, rat, in vivo, iv, 10 mg/kg, Cl, 10 mg kg^−1 bolus i.v., Cl=dose/AUC): 0.883 mL/min | half-life ([5]; female, Wistar, rat, in vivo, iv, 10 mg/kg, 10 mg kg^−1 bolus i.v., rat plasma): 1.2 ± 0.1 h | AUC [5, 8]: 34400 ± 1100 ng·h/mL | Cmax [5, 8]: 11900 ± 400 ng/mL | k el [5, 8]: 8.33e-05 s⁻¹ | half-life ([5]; female, Wistar, rat, in vivo, po, 10 mg/kg, 10 mg kg^−1 p.o., rat plasma): 2 h | time at which maximum level in plasma was attained ([5]; oral dosing 10 mg kg^−1, rat): 30 min | time for which 667 COUMATE could be detected in plasma ([5]; single 10 mg kg^−1 i.v. or p.o. dose, rat): up to 8 h | inhibition of rat liver STS (rat liver STS; 10 mg kg^−1, ref Purohit et al, 2000, 2001): 93% | duration of STS inhibition in vivo after a single dose (rat liver STS; rat, hepatic STS, ref Purohit et al, 2001): up to 24 h | percentage of agent removed on incubation with plasma [6]: 80%

O=c1oc2cc(O)ccc2c2c1CCCCC2 [667 COUMARIN, 3-Hydroxy-6-oxo-8,9,10,11-tetrahydro-7H-cyclohepta-[c] [1] benzopyran]
level of degradation product 667 COUMARIN in vehicle ([2]; 667 COUMATE in vehicle on ice for up to 6 h): below the limit of detection | effect of acetazolamide preincubation on uptake into RBCs (rat RBCs; whole rat blood preincubated with acetazolamide (100 μM)): did not affect this uptake | uptake into RBCs (rat RBCs; whole rat blood, 667 COUMARIN 10 μg ml^−1, no acetazolamide): 50% | formation as metabolite of 667 COUMATE in vivo ([5]; rat plasma after i.v. or p.o. 667 COUMATE): only a minor metabolic product | STS inhibitory activity (STS): devoid of any STS inhibitory activity
